Assays:
Assay in all cases: relative viability (nuclei count vs DMSO), 5 days (fraction); higher = more cells survive
[1] = compound: Nc1ncn([C@H]2C[C@H](O)[C@@H](CO)O2)c(=O)n1 [Decitabine] + Cc1nc(Nc2ncc(C(=O)Nc3c(C)cccc3Cl)s2)cc(N2CCN(CCO)CC2)n1 [Dasatinib] (partner 0.075 µM)
Outline: (§1)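 Each reported value is a median over duplicate plates. It expresses relative viability: treated-well nuclei count divided by vehicle-well nuclei count. Lung cancer cell lines in 1536-well plates were dosed by pin tool a day after seeding, alone with one drug or with a fixed anchor-drug dose plus five library-drug doses (not always all listed) in √10 steps, and nuclei were counted after 5 days.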

[2] = compound: COc1cc2c(Oc3ccc4[nH]c(C)cc4c3F)ncnc2cc1OCCCN1CCCC1 [Cediranib] + COc1cc2c(Oc3ccc(NC(=O)C4(C(=O)Nc5ccc(F)cc5)CC4)cc3F)ccnc2cc1OCCCN1CCOCC1 [Foretinib] (partner 0.25 µM)
Outline: as §1

[3] = compound: O=C(C[C@H]1NCCC[C@@H]1O)Cn1cnc2cc(Br)c(Cl)cc2c1=O (racemic) [Halofuginone] + CC1(C)CCC(c2ccc(Cl)cc2)=C(CN2CCN(c3ccc(C(=O)NS(=O)(=O)c4ccc(N[C@H](CCN5CCOCC5)CSc5ccccc5)c(S(=O)(=O)C(F)(F)F)c4)cc3)CC2)C1 [Navitoclax] (partner 0.5 µM)
Outline: as §1

[4] = compound: Nc1ncn([C@H]2C[C@H](O)[C@@H](CO)O2)c(=O)n1 [Decitabine] + O=C(c1cc(Cc2n[nH]c(=O)c3ccccc23)ccc1F)N1CCN(C(=O)C2CC2)CC1 [Olaparib] (partner 8 µM)
Outline: as §1

| Cell Line | relative viability ([1]; first compound 0.04 µM) | relative viability ([1]; first compound 0.1265 µM) | relative viability ([1]; first compound 0.4 µM) | relative viability ([1]; first compound 1.265 µM) | relative viability ([1]; first compound 4 µM) | relative viability ([2]; first compound 0.04 µM) | relative viability ([2]; first compound 0.1265 µM) | relative viability ([2]; first compound 0.4 µM) | relative viability ([2]; first compound 1.265 µM) | relative viability ([2]; first compound 4 µM) | relative viability ([3]; first compound 0.001 µM) | relative viability ([3]; first compound 0.003162 µM) | relative viability ([3]; first compound 0.01 µM) | relative viability ([3]; first compound 0.03162 µM) | relative viability ([3]; first compound 0.1 µM) | relative viability ([4]; first compound 0.1265 µM) | relative viability ([4]; first compound 0.4 µM) | relative viability ([4]; first compound 1.265 µM) | relative viability ([4]; first compound 4 µM) | relative viability ([4]; first compound 0.04 µM) |
| --- | --- | --- | --- | --- | --- | --- | --- | --- | --- | --- | --- | --- | --- | --- | --- | --- | --- | --- | --- | --- |
| PC-3 [JPC-3] | 0.628 | 0.782 | 0.565 | 0.437 | 0.399 | 1.1 | 1.1 | 0.98 | 1.05 | 1.08 | 0.8 | 0.792 | 0.805 | 0.768 | 0.73 | 0.762 | 0.368 | 0.465 | 0.455 | – |
| PC-14 | 0.0322 | 0.142 | 0.0565 | 0.0706 | 0.0858 | 1.04 | 1.08 | 0.861 | 0.997 | 0.928 | 1.07 | 0.941 | 0.963 | 0.572 | 0.154 | 0.0887 | 0.0551 | 0.0482 | 0.0711 | 0.114 |
| RERF-LC-KJ | 0.703 | 0.741 | – | 0.465 | 0.485 | 0.917 | 0.889 | 0.873 | 0.862 | 0.953 | 0.987 | 1.11 | 1.05 | 0.905 | 0.699 | 0.608 | – | 0.448 | 0.495 | 0.615 |
| SK-LU-1 | 0.188 | 0.166 | 0.173 | 0.154 | 0.185 | 0.945 | 0.825 | 0.725 | 0.876 | 0.972 | 0.821 | 0.895 | 0.874 | 1.42 | 0.275 | 0.244 | 0.214 | 0.247 | 0.253 | 0.274 |
| SK-MES-1 | 0.333 | 0.234 | 0.161 | 0.135 | 0.158 | 0.834 | 1.02 | 0.927 | 0.901 | 0.976 | 1.22 | 1.16 | 1.18 | 0.67 | 0.197 | 0.362 | 0.299 | 0.179 | 0.244 | 0.288 |
| SW 1573 | 0.458 | 0.433 | 0.416 | 0.153 | 0.163 | 0.937 | 1.01 | 0.912 | 0.996 | 1.09 | 1.03 | 1.01 | 0.921 | 0.6 | 0.168 | 0.239 | 0.17 | 0.127 | 0.111 | 0.257 |

— the supplement of paper PMC10307832
